One test concerns the target T1, human Itk kinase (Homo sapiens, UniProt Q08881).
T1 sequence (Q08881 1-620): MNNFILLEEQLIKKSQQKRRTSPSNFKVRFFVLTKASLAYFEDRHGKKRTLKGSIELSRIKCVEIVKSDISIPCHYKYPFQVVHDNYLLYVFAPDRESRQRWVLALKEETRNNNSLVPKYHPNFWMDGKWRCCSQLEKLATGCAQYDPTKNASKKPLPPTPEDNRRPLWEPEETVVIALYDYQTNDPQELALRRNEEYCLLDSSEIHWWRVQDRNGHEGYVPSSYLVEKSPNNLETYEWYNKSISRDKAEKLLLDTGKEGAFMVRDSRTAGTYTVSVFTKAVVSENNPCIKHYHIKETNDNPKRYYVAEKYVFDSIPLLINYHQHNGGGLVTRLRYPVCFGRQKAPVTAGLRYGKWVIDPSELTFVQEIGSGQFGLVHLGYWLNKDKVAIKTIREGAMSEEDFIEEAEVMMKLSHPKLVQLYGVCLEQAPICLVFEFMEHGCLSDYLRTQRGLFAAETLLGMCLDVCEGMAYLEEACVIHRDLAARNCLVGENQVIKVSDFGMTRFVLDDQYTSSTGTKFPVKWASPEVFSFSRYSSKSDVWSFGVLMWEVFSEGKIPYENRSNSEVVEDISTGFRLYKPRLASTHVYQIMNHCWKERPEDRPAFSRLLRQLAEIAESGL
The test is described as follows: Itk inhibition assay: radioactivity-based assay. It is filed as biochemical. The conditions noted are these: Ki(app). How it is done:
The compounds of the present invention were evaluated as inhibitors of human Itk kinase using a radioactivity-based assay. These compounds can also be evaluated using a spectrophotometric or alphascreen assay.
Assays were carried out in a mixture of 20 mM MOPS (pH 7.0), 10 mM MgCl2, 0.1% BSA and 1 mM DTT. Final substrate concentrations in the assay were 7.5 μM [γ-^33P]ATP (400 μCi ^33P ATP/μmol ATP, Amersham Pharmacia Biotech/Sigma Chemicals) and 3 μM peptide (SAM68 protein Δ332-443). Assays were carried out at 25° C. in the presence of 50 nM Itk. An assay stock buffer solution was prepared containing all of the reagents listed above, with the exception of ATP and the test compound of interest. 50 μL of the stock solution was placed in a 96 well plate followed by addition of 2 μL of DMSO stock containing serial dilutions of the test compound (typically starting from a final concentration of 50 μM with 2-fold serial dilutions) in duplicate (final DMSO concentration 2%). The plate was pre-incubated for 10 minutes at 25° C. and the reaction initiated by addition of 50 μL [γ-^33P]ATP (final concentration 7.5 μM).
The reaction was stopped after 10 minutes by the addition of 100 μL 0.2M phosphoric acid+0.01% TWEEN 20. A multiscreen phosphocellulose filter 96-well plate (Millipore, Cat no. MAPHNOB50) was pretreated with 100 μL 0.2M phosphoric acid+0.01% TWEEN 20 prior to the addition of 170 μL of the stopped assay mixture. The plate was washed with 4×200 μL 0.2M phosphoric acid+0.01% TWEEN 20. After drying, 30 μL Optiphase ‘SuperMix’ liquid scintillation cocktail (Perkin Elmer) was added to the well prior to scintillation counting (1450 Microbeta Liquid Scintillation Counter, Wallac).
Ki(app) data were calculated from non-linear regression analysis of the initial rate data using the Prism software package (GraphPad Prism version 3.0cx for Macintosh, GraphPad Software, San Diego Calif., USA).

The subject of a further test is Colo205 cells. As to the kind of experiment: Analysis of cell proliferation and viability. It is filed as cell-based. To be noted: Homo sapiens, COLO 205; Colo205 cells, incubated for 96 hours; read-out: IC50 value.
In another test the target is T2, FLT-3 (Homo sapiens, UniProt P36888).
T2 sequence (P36888 27-993): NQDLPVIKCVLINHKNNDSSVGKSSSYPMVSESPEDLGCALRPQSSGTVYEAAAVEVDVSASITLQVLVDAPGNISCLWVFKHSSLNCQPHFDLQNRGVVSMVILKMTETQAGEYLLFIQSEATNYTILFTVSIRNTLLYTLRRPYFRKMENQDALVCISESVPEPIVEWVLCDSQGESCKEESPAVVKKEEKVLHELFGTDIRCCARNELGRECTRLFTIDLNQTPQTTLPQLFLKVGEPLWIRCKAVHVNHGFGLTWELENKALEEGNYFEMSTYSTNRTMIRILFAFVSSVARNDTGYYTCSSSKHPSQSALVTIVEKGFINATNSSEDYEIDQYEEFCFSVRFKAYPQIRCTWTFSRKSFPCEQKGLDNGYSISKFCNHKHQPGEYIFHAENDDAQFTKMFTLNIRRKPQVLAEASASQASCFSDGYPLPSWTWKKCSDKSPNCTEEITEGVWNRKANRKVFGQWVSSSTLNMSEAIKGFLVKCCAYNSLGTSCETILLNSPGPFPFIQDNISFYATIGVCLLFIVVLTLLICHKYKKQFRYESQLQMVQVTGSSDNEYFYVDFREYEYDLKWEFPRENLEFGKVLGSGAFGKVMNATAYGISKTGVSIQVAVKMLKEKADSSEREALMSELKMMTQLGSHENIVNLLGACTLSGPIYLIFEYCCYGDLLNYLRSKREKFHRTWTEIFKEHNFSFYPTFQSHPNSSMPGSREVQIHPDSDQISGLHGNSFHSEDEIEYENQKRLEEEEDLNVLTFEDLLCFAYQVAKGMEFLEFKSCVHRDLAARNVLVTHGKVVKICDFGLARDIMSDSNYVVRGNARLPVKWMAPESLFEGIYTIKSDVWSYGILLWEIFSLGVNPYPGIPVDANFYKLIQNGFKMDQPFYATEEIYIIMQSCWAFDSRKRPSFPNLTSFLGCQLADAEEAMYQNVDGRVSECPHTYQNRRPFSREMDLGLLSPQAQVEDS
As to the kind of experiment: FLT-3 inhibition assay, radiometric filter-binding. It is filed as biochemical. How it is done: This assay monitors the 33P incorporation into a substrate poly(Glu, Tyr) 4:1 (pE4Y). […] Final substrate concentrations in the assay were 90 μM ATP and 0.5 mg/ml pE4Y (both from Sigma Chemicals, St. Louis, Mo.). […] Reactions were carried out at room temperature.
Two assay solutions were prepared. Solution 1 contains 100 mM HEPES (pH 7.5), 10 mM MgCl2, 25 mM NaCl, 1 mg/ml pE4Y and […] (containing 0.3 mCi of [γ-33^P]ATP for each reaction). Solution 2 contains 100 mM HEPES (pH 7.5), 10 mM MgCl2, 25 mM NaCl, 2 mM DTT, 0.02% BSA and 3 nM FLT-3. The assay was run on a 96 well plate by mixing 50 μl each of Solution 1 and […] of the compounds of the present invention. The reaction was initiated with Solution 2. […] All of the reaction volume was then transferred to a filter plate and washed with 5% TCA by a Harvester 9600 from TOMTEC (Hamden, Conn.). The amount of ^33P incorporation into pE4y was analyzed by a Packard Top Count Microplate Scintillation Counter (Meriden, Conn.). The data was fitted using Prism software to get an IC50 or Ki.

In patent US8637511B2, “Aminopyrimidines useful as kinase inhibitors” (Vertex Pharmaceuticals Incorporated, priority 2005, dated 2014) one finds Ki and IC50 data, which are given here for one compound.

For the compound `CCc1cc(Nc2cc(N3CCC3)nc(Sc3ccc(NC(=O)c4ccccc4Cl)cc3)n2)n[nH]1` [Compound 64], the Ki is no more than 100 nM at human Itk kinase and 50 to 150 nM on FLT-3. Moreover, the IC50 in the test with Colo205 cells was 50 to 1000 nM.

For orientation: IC50 means the concentration that gives 50% inhibition.
